Data taken from ChEMBL document CHEMBL1201862, “PubChem BioAssay data set” (2004).
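Step 1: Grow cells in 96-well plates. Step 2: Expose to compound for 48 hours at 5 concentrations. Step 3: Interpolate endpoints linearly; if unreached, use highest concentration. Here, GI50 denotes the concentration required for 50% inhibition of growth.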 Active and inactive are the calls of the source. Rule as the data show it: active = GI50 up to about 1.1 µM and inactive = higher.

Key:
Assay in all cases: NCI anticancer screen, dose series, 48 h
A549 = test system: A549
CAKI-1 = test system: CAKI-1
EKVX = test system: EKVX
LOX IMVI = test system: LOX IMVI
M14 = test system: M14
Malme-3M = test system: Malme-3M
NCI-H23 = test system: NCI-H23
NCI-H460 = test system: NCI-H460
OVCAR-3 = test system: OVCAR-3
RPMI-8226 = test system: RPMI-8226
SF-295 = test system: SF-295
SK-MEL-2 = test system: SK-MEL-2
SK-OV-3 = test system: SK-OV-3
UACC-62 = test system: UACC-62
HCC 2998 = test system: HCC 2998
IGROV-1 = test system: IGROV-1

Measured: GI50

COc1ccc(C(c2ccc(C(C)C)cc(OC)c2=O)c2ccc(C(C)C)cc(OC)c2=O)cc1
inactive: A549 12 µM | CAKI-1 18.9 µM | EKVX 13.6 µM | LOX IMVI 15.3 µM | M14 14.9 µM | Malme-3M 16.5 µM | NCI-H23 16.3 µM | NCI-H460 14.6 µM | OVCAR-3 13.2 µM | RPMI-8226 5.06 µM | SF-295 16.2 µM | SK-MEL-2 15.9 µM | SK-OV-3 18.4 µM | UACC-62 14.8 µM

COC1(C)C(=O)N2C1N(C(=O)OCc1ccccc1)CC2(C)C (stereo not drawn)
inactive: A549 > 100 µM | EKVX > 100 µM | HCC 2998 > 100 µM | IGROV-1 > 100 µM | LOX IMVI > 100 µM | M14 > 100 µM | Malme-3M > 100 µM | NCI-H23 > 100 µM | NCI-H460 > 100 µM | OVCAR-3 > 100 µM | RPMI-8226 > 100 µM | SF-295 > 100 µM | SK-MEL-2 > 100 µM | UACC-62 > 100 µM

Cc1cccc(/N=C/c2ccc(N(CCC#N)S(=O)(=O)c3ccccc3)cc2C)c1
inactive: A549 > 100 µM | CAKI-1 > 100 µM | EKVX > 100 µM | HCC 2998 > 100 µM | IGROV-1 > 100 µM | LOX IMVI 17.6 µM | M14 > 100 µM | Malme-3M > 100 µM | NCI-H23 > 100 µM | OVCAR-3 > 100 µM | RPMI-8226 63.4 µM | SF-295 > 100 µM | SK-MEL-2 > 100 µM | SK-OV-3 > 100 µM | UACC-62 26.1 µM

CC(=O)OC[C@@H]1[C@H]2CC(=O)O[C@H]2C[C@H]1OC(C)=O
inactive: A549 > 100 µM | CAKI-1 > 100 µM | EKVX > 100 µM | HCC 2998 > 100 µM | IGROV-1 > 100 µM | LOX IMVI > 100 µM | M14 > 100 µM | Malme-3M > 100 µM | NCI-H460 > 100 µM | OVCAR-3 > 100 µM | RPMI-8226 > 100 µM | SF-295 > 100 µM | SK-OV-3 > 100 µM | UACC-62 > 100 µM

Cc1[nH]c2ccccc2c1C(=O)/C=C/c1ccccc1O
inactive: A549 > 100 µM | CAKI-1 > 100 µM | EKVX > 100 µM | HCC 2998 > 100 µM | IGROV-1 > 100 µM | LOX IMVI > 100 µM | M14 > 100 µM | Malme-3M > 100 µM | NCI-H23 > 100 µM | NCI-H460 > 100 µM | OVCAR-3 > 100 µM | SF-295 > 100 µM | SK-MEL-2 > 100 µM | SK-OV-3 > 100 µM | UACC-62 > 100 µM

Cc1ccc(S(=O)(=O)C(C#N)c2nc3ccccc3nc2-n2cccn2)cc1 (stereo not drawn)
inactive: A549 > 100 µM | EKVX > 100 µM | HCC 2998 > 100 µM | IGROV-1 > 100 µM | M14 > 100 µM | Malme-3M > 100 µM | NCI-H23 > 100 µM | NCI-H460 > 100 µM | OVCAR-3 > 100 µM | RPMI-8226 > 100 µM | SF-295 > 100 µM | SK-MEL-2 > 100 µM | SK-OV-3 > 100 µM

CCOC(=O)C1S/C(=N\C(=N)N[N+](=O)[O-])N=C1C (stereo not drawn)
inactive: A549 > 100 µM | EKVX > 100 µM | HCC 2998 > 100 µM | IGROV-1 > 100 µM | LOX IMVI > 100 µM | Malme-3M > 100 µM | NCI-H23 > 100 µM | NCI-H460 > 100 µM | OVCAR-3 > 100 µM | RPMI-8226 > 100 µM | SF-295 > 100 µM | SK-MEL-2 > 100 µM

COC(=O)CCSC(=O)Nc1ccccc1Cl
inactive: A549 > 100 µM | CAKI-1 > 100 µM | EKVX > 100 µM | HCC 2998 > 100 µM | LOX IMVI > 100 µM | M14 > 100 µM | NCI-H23 > 100 µM | NCI-H460 > 100 µM | OVCAR-3 > 100 µM | RPMI-8226 > 100 µM | SF-295 > 100 µM | SK-MEL-2 > 100 µM | UACC-62 > 100 µM

COC1OC(C)C2OC(C)(C)OC2C1OC(C)=O (stereo not drawn)
inactive: A549 > 100 µM | CAKI-1 > 100 µM | HCC 2998 > 100 µM | IGROV-1 > 100 µM | LOX IMVI > 100 µM | M14 > 100 µM | Malme-3M > 100 µM | NCI-H23 > 100 µM | NCI-H460 > 100 µM | OVCAR-3 > 100 µM | RPMI-8226 > 100 µM | SF-295 > 100 µM | UACC-62 > 100 µM

COc1ccc(/N=N/c2c(-c3ccccc3)nn(C(=O)CC(=O)Nc3cccc(Cl)c3)c2-c2ccccc2)cc1
inactive: A549 32.3 µM | CAKI-1 34.5 µM | EKVX 29.4 µM | HCC 2998 21.5 µM | IGROV-1 > 100 µM | LOX IMVI > 100 µM | Malme-3M > 100 µM | NCI-H23 22.6 µM | NCI-H460 49.3 µM | OVCAR-3 29.6 µM | RPMI-8226 > 100 µM | SF-295 26.9 µM | SK-MEL-2 > 100 µM | SK-OV-3 > 100 µM | UACC-62 > 100 µM
